Active and inactive are the calls of the source. The rule behind the calls is not given here.
How the values were obtained:
HCT-116 [1] = test: Anticancer activity against human HCT116 cells assessed as growth inhibition at 50 uM by CCK-8 assay; format: functional
HCT-116 [2] = test: Anticancer activity against human HCT116 cells assessed as growth inhibition by CCK-8 assay; format: functional, cell-based
HCT-116 [3] = test: Induction of DNA damage in human HCT116 cells at G0/G1 phase at 100 nM after 24 hrs by gamma-H2AX-staining based-flow cytometry; format: functional, cell-based
HCT-116 [4] = test: Decrease in mitotic index in human HCT116 cells at 100 nM after 20 and 24 hrs by flow cytometry; format: functional, cell-based
HCT-116 [5] = test: Cell cycle arrest in human HCT116 cells assessed as increase in number of cells at G2/M phase at 20 and 30 uM after 20 hrs by propidium-iodide staining based flow cytometry; format: functional
HCT-116 [6] = test: Decrease in mitotic index in human HCT116 cells after 20 and 24 hrs by flow cytometry; format: functional, cell-based
HCT-116 [7] = test: Cell cycle arrest in human HCT116 cells assessed as decrease in number of cells at S phase at 20 and 30 uM after 20 hrs by propidium-iodide staining based flow cytometry; format: functional
HCT-116 [8] = test: Decrease in mitotic index in human HCT116 cells at 30 and 50 uM by flow cytometry; format: functional, cell-based; conditions: TDE = time-dependent effect
HCT-116 [9] = test: Induction of DNA damage in human HCT116 cells at G0/G1 phase at 20 and 30 uM after 24 hrs by gamma-H2AX-staining based-flow cytometry; format: functional, cell-based
HCT-116 [10] = test: Induction of apoptosis in human HCT116 cells at 30 uM after 30 hrs by annexin-V/7-AAD staining based flow cytometry; format: functional
HCT-116 [11] = test: Cell cycle arrest in human HCT116 cells assessed as decrease in number of cells at G0/G1 phase at 20 and 30 uM after 20 hrs by propidium-iodide staining based flow cytometry; format: functional
HCT-116 [12] = test: Induction of DNA damage in human HCT116 cells at G0/G1 phase at 30 uM after 24 hrs by gamma-H2AX-staining based-flow cytometry; format: functional, cell-based
HCT-116 [13] = test: Increase in mitotic index in human HCT116 cells at 20 nM after 20 and 24 hrs by flow cytometry; format: functional, cell-based
HCT-116 [14] = test: Induction of DNA damage in human HCT116 cells at G0/G1 phase at 20 nM after 24 hrs by gamma-H2AX-staining based-flow cytometry; format: functional, cell-based

Q: How did the inhibition at 50 µM (HCT-116 [1]) turn out when `C[C@H](NC(=O)OC(C)(C)C)c1nc(-c2nc(-c3nc(C(N)=S)cs3)cs2)cs1` was run?
A: 70%

Q: And the IC50 (HCT-116 [2])?
A: 38.1 µM

Q: For `CCOC(=O)c1csc(-c2csc(-c3csc([C@@H](C)NC(=O)OC(C)(C)C)n3)n2)n1`, which inhibition (HCT-116 [1]) is on record?
A: Active

Q: Which results are given for `COc1cccc2c1C(=O)c1c(O)c3c(c(O)c1C2=O)C[C@@](O)(C(=O)CO)C[C@@H]3O[C@H]1C[C@H](N)[C@H](O)[C@H](C)O1`?
A: Activity (HCT-116 [3]): Active; inhibition (HCT-116 [4]): Active

Q: For `C[C@H](NC(=O)OC(C)(C)C)c1nc(-c2nc(-c3nc(C(N)=O)cs3)cs2)cs1`, which Activity (HCT-116 [5]) is on record?
A: Active

Q: And the inhibition (HCT-116 [6])?
A: Dose-dependent effect

Q: What about the Activity (HCT-116 [7]) of the same compound?
A: Active

Q: What about the inhibition (HCT-116 [8]) of the same compound?
A: tde

Q: What about the Activity (HCT-116 [9]) of the same compound?
A: Active

Q: And the inhibition at 50 µM (HCT-116 [1])?
A: 70%

Q: What about the IC50 (HCT-116 [2]) of the same compound?
A: 7.6 µM

Q: What about the Activity (HCT-116 [10]) of the same compound?
A: 60%

Q: What about the Activity (HCT-116 [11]) of the same compound?
A: Active

Q: `CCOC(=O)c1csc(-c2csc(-c3csc([C@H](C)NC(=O)OC(C)(C)C)n3)n2)n1` was tested. Which inhibition (HCT-116 [1]) did it give?
A: Active

Q: With `C[C@@H](NC(=O)OC(C)(C)C)c1nc(-c2nc(-c3nc(C(N)=O)cs3)cs2)cs1` as the compound, how does the Activity (HCT-116 [12]) read?
A: Active

Q: What about the inhibition at 50 µM (HCT-116 [1]) of the same compound?
A: 70%

Q: What about the IC50 (HCT-116 [2]) of the same compound?
A: 22.4 µM

Q: And the Activity (HCT-116 [10])?
A: 30%

Q: Which inhibition at 50 µM (HCT-116 [1]) does the source give for `C[C@@H](NC(=O)OC(C)(C)C)c1nc(-c2nc(-c3nc(C(N)=S)cs3)cs2)cs1` here?
A: 70%

Q: What about the IC50 (HCT-116 [2]) of the same compound?
A: 45.2 µM

Q: Which Activity (HCT-116 [13]) does the source give for `CC(=O)O[C@H]1C(=O)[C@@]2(C)[C@H]([C@H](OC(=O)c3ccccc3)[C@]3(O)C[C@H](OC(=O)[C@H](O)[C@@H](NC(=O)c4ccccc4)c4ccccc4)C(C)=C1C3(C)C)[C@]1(OC(C)=O)CO[C@@H]1C[C@@H]2O` here?
A: Active

Q: And the Activity (HCT-116 [14])?
A: Active

— ChEMBL document CHEMBL3632493, “Design, synthesis and anticancer mechanistic studies of linked azoles” (Medchemcomm, 2015)
